This note sets out measurements from PubChem BioAssay (NCI).

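The compound was tested at five concentrations on cells cultured in 96-well plates, with a 48-hour exposure period. TGI denotes the concentration required for complete inhibition of growth.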

One experiment concerns P388 leukemia. Put plainly: NCI tumour cell line growth inhibition, 48 h.
A further experiment relates to P388/ADR leukemia. Description: NCI tumour cell line growth inhibition, 48 h.

In the case of `Nc1ccc(N=Nc2ccc(/C=C/c3ccc(N=Nc4ccc(N)c5ccc(S(=O)(=O)O)cc45)cc3S(=O)(=O)O)c(S(=O)(=O)O)c2)c2cc(S(=O)(=O)O)ccc12`, the TGI in the experiment with P388 leukemia and in the experiment on P388/ADR leukemia was above 100 µM throughout.
